The record followed here is patent publication US8236729B2, “Herbicidal compositions” (Bayer Cropscience AG, priority 2004, dated 2012).

In this experiment the test system is Lolium multiflorum. Description: Outdoor trial, post-emergence herbicidal action (Example 5.2). Format: in vivo. The settings on record: 1080 g of AS/ha, application at the 2-5-leaf stage (post-emergence), evaluation 55 days after treatment. The method, then: The herbicidal efficacy of the active compounds or active compound mixtures was scored visually by comparing the treated pots (soil) with untreated controls. The damage and development of all above-ground plant parts was recorded. Scoring was done on a percentage scale (100% action=all plants dead or not emerged; 50% action=50% of the plants and green plant parts dead or not emerged; 0% action=no discernible action=like control plot). The score figures of in any case 4 repetitions (pots) were averaged.
When applying the combinations according to the invention, herbicidal effects are frequently observed on a harmful plant species which exceed the formal total of the effects of the herbicides present when these are applied by themselves. Alternatively, it is observed in some cases that a lower application rate is required for the herbicide combination in order to achieve the same effect on a harmful plant species in comparison with the individual products. […] When the data observed already exceed the formal total of the data in the experiments with individual applications, they likewise exceed the expected value according to Colby, which is calculated using the formula below and is likewise regarded as an indication of synergism (cf. S. R. Colby; in Weeds 15 (1967) pp. 20 to 22): E=A+B−(A·B/100) […]

For “Glyphosate-isopropylammonium [(B2.1.2.1)]”, the “Herbicidal action [%] against Lolium multiflorum” value is given as 18%.
